Read-outs that look alike come from different tables or passages of the source. Marks after values point to notes of the source that are not given here.
Legend:
4T1.2 cells = assay: Syngeneic 4T1.2 breast cancer model, tumor growth; format: in vivo, Balb/c mice; conditions: day 18
Procedure: (§1) Female Balb/c mice (6–8 weeks) were obtained from the Walter & Eliza Hall Institute (Melbourne, Australia). Animal experiments were performed in accordance with institutional guidelines of the Peter MacCallum Cancer Centre. To determine the utility of pixatimod in combination with a PD-1 checkpoint inhibitor antibody (clone RMP1–14 or isotype control antibody 2A3, Bio-X-Cell, NH, USA), mice were inoculated with 1 × 10^5 4T1.2 cells into the mammary fatpad. One week later, mice with similar sized tumors (mean tumor volume 56 mm^3) were randomised into four groups (n = 6 mice per group): saline + isotype antibody, pixatimod + isotype antibody, saline + anti-PD-1 antibody and pixatimod + anti-PD-1 antibody. Pixatimod was administered at 15 mg/kg IP weekly for 3 weeks (days 1, 8 and 15) and anti-PD-1 or isotype antibody (200 μg) were given IP on days 1, 4, 8, 11 and 15. […]
In the 4T1.2 model, the percentage tumor growth inhibition was determined according to the following formula: 100 × (1-ΔT/ ΔC) where ΔC and ΔT were calculated by subtracting the mean tumor volume in each group on day 1 of treatment from the mean tumor volume on the day of analysis. […] The frequency of clinical observations, and necropsy and histopathology findings, was calculated as applicable. […]

rats = assay: Repeated weekly SC toxicology in rats (organ weights); format: in vivo; conditions: weekly SC x5, 3, 12 and 48 mg/kg
Procedure: Supplementary file 40425_2018_363_MOESM2_ESM.pptx: Additional file 2: Effect of pixatimod dosing on selected organ weights in beagle dogs (IV and SC) and rats (SC). Repeated weekly IV exposure (× 5) of pixatimod increases the relative weights of liver (A) and kidney (B) but not thymus (C) nor spleen (D) in beagle dogs. […] Data shown is for combined sexes. […] Study size, n = 15 for control and 48 mg/kg groups and n = 10 for 3 and 12 mg/kg groups. […] Study size, n = 5 for control and 20 mg/kg groups and n = 3 for 2.5 and 7.5 mg/kg groups. *P < 0.05, **P < 0.01, ***P < 0.001 versus control (Kruskal-Wallis test for the dog study, ANOVA followed by Dunnett’s comparison for the rat study). (PPTX 65 kb)

[1] = design: method as in PMID 25754234; conditions: Mouse, 15 mg/kg IV (HED 73 mg); cited from earlier work
4T1.2 tumors = assay: Flow cytometry of immune cells in 4T1.2 tumors and spleens (satellite groups, day 11); format: in vivo, Balb/c mice
Procedure: as §1, with “15. The experiment was ended on day 18 post treatment initiation (25 days post inoculation) due to emerging toxicities in all treatment groups (e.g. piloerection).” for “15.”
Immune cells from the collagenase (Collagenase IV, Worthington Biochemical Corporation, NJ, USA) processed tumors and spleens were analysed by flow cytometry using an LSR II analyser (BD Biosciences). […]

[2] = Toxicokinetics in the 1 month IV toxicology study in beagle dogs; format: in vivo; conditions: dog, plasma
Procedure: A 1 month toxicology study of pixatimod in beagle dogs was performed under OECD Good Laboratory Practice (GLP) to assess the toxicity and toxicokinetic profile of pixatimod with 5 intravenous, short term (approximately 1 h) infusions at three defined dose levels of 2.5, 7.5 and 20 mg/kg weekly over 29 days. Blood samples were collected for toxicokinetic investigation to provide information on the systemic exposure. Parameters monitored included mortality and morbidity, clinical signs, food consumption, body weight and body temperature, ophthalmoscopy and electrocardiographic measurements. Laboratory investigations were performed using haematology (ADVIA 120), coagulation (AMAX Density Plus Coagulometer), clinical chemistry (VITROS 950) and urinalysis (URYXXON 300). At the end of the treatment, all animals were euthanized and subjected to a complete necropsy with selected organs weighed and followed by a detailed histopathology evaluation. Bone marrow smears from the femur and sternum were prepared at necropsy, fixed and stained with May-Grünwald and Giemsa stain for analysis. Blood samples obtained during the Phase Ia monotherapy study (PG545102) were collected weekly and the parameters reported herein were analysed by local hospital laboratories.
Plasma samples were analysed using a LC-MS/MS method as previously described. Pharmacokinetic parameters in animal studies were determined by non-compartmental analyses (NCA) of the mean plasma pixatimod concentration vs time profiles for each dose using the linear trapezoidal method in WinNonlin 5.2.1. For comparison with previous animal studies, exposure data (AUC0-last) in clinical samples were derived using individual subject NCA type exposure parameters from the original plasma concentration data using R (64-bit) Version 3.0.1.

advanced cancer patients = test system: advanced cancer patients; design: method as in PMID 29531325; conditions: cited from earlier work

CC(C)CCC[C@@H](C)[C@H]1CC[C@H]2[C@@H]3CC[C@H]4C[C@@H](O[C@@H]5O[C@H](COS(=O)(=O)O)[C@@H](O[C@H]6O[C@H](COS(=O)(=O)O)[C@@H](O[C@H]7O[C@H](COS(=O)(=O)O)[C@@H](O[C@H]8O[C@H](COS(=O)(=O)O)[C@@H](OS(=O)(=O)O)[C@H](OS(=O)(=O)O)[C@H]8OS(=O)(=O)O)[C@H](OS(=O)(=O)O)[C@H]7OS(=O)(=O)O)[C@H](OS(=O)(=O)O)[C@H]6OS(=O)(=O)O)[C@H](OS(=O)(=O)O)[C@H]5OS(=O)(=O)O)CC[C@]4(C)[C@H]3CC[C@]12C [pixatimod]
Tumor growth compared to the vehicle plus isotype antibody (Control) group (4T1.2 cells): significantly inhibited | tumor growth inhibition (%TGI) (4T1.2 cells; pixatimod 15 mg/kg IP weekly x3, antibody 200 μg IP twice weekly): 68% | Relative spleen weight (rats): increased in a dose-dependent manner | AUC0-last Week 1 [1]: 1358 ^c μg.h/mL | abundance of CD4+ or CD8+ T cells or NK cells in the spleens compared to control mice (4T1.2 tumors; day 11, spleens): little or no increase | intratumoral NK cells (4T1.2 tumors; pixatimod alone, 4T1.2 tumors): didn’t significantly increase | AUC(0-t) ([2]; 2.5 mg/kg, 2.5 mg/kg weekly IV (HED 83 mg), read-out: AUC0-last Week 1): 697 µg·h/mL | AUC(0-t) ([2]; 2.5 mg/kg, 2.5 mg/kg weekly IV (HED 83 mg), read-out: AUC0-last Week 4): 1370 µg·h/mL | AUC(0-t) ([2]; 7.5 mg/kg, 7.5 mg/kg weekly IV (HED 250 mg), read-out: AUC0-last Week 1): 1810 µg·h/mL | AUC(0-t) ([2]; 7.5 mg/kg, 7.5 mg/kg weekly IV (HED 250 mg), read-out: AUC0-last Week 4): 4940 µg·h/mL | AUC(0-t) ([2]; 20 mg/kg, 20 mg/kg weekly IV (HED 666 mg), read-out: AUC0-last Week 1): 6880 µg·h/mL | AUC(0-t) ([2]; 20 mg/kg, 20 mg/kg weekly IV (HED 666 mg), read-out: AUC0-last Week 4): 10500 µg·h/mL | dose up to which the compound was well tolerated (advanced cancer patients; IV infusion, monotherapy clinical trial): up to 100 mg | patients with treatment emergent adverse events possibly, likely, or certainly related to pixatimod (advanced cancer patients; Phase Ia monotherapy trial): 20 | estimated median duration of SD (advanced cancer patients): 57 days | patients with stable disease (SD) at 8 weeks by RECIST 1.1 (advanced cancer patients; of 16 patients with efficacy assessments): six | doses inducing flu-like symptoms in patients (advanced cancer patients; required prophylactic paracetamol): ≥ 50 mg | disease control rate at 8 weeks (advanced cancer patients; six of sixteen assessed): 38%

Reference: PMC6000956, “Immunomodulatory activities of pixatimod: emerging nonclinical and clinical data, and its potential utility in combination with PD-1 inhibitors” (Journal for Immunotherapy of Cancer, 2018)
